Source: patent US7709516B2, “Helix 12 directed non-steroidal antiandrogens” (Endorecherche, Inc., priority 2005, dated 2010)
Like-named read-outs stand apart in the source and are kept apart here.

Key:
[1] = system: rat prostate, seminal vesicle, levator ani muscle; assay: Systemic antiandrogenic activity in orchidectomized immature male rats with DHT implant; type: in vivo; conditions: rat +DHT, 0.5 mg/animal daily 7 days; for inhibition in vivo at 0.5 mg: Rattus norvegicus, 168 h, s.c. or p.o. (route not marked); for % Inhibition Lev.Ani / % Inhibition SV / % Inhibition Prostate: Table 3; for % Inhibition Lev.Ani / % Inhibition SV: p.o (marked in prostate cell); for % Inhibition Prostate: p.o
[2] = biological target: T1, Human Androgen Receptor (Homo sapiens, UniProt P10275); assay: Androgen receptor binding assay ([3H]R1881, HAP) in cytosol of HEK-293 cells transfected with hAR; conditions: relative to R1881 = 100, transfected cells
T1 sequence (P10275 1-920): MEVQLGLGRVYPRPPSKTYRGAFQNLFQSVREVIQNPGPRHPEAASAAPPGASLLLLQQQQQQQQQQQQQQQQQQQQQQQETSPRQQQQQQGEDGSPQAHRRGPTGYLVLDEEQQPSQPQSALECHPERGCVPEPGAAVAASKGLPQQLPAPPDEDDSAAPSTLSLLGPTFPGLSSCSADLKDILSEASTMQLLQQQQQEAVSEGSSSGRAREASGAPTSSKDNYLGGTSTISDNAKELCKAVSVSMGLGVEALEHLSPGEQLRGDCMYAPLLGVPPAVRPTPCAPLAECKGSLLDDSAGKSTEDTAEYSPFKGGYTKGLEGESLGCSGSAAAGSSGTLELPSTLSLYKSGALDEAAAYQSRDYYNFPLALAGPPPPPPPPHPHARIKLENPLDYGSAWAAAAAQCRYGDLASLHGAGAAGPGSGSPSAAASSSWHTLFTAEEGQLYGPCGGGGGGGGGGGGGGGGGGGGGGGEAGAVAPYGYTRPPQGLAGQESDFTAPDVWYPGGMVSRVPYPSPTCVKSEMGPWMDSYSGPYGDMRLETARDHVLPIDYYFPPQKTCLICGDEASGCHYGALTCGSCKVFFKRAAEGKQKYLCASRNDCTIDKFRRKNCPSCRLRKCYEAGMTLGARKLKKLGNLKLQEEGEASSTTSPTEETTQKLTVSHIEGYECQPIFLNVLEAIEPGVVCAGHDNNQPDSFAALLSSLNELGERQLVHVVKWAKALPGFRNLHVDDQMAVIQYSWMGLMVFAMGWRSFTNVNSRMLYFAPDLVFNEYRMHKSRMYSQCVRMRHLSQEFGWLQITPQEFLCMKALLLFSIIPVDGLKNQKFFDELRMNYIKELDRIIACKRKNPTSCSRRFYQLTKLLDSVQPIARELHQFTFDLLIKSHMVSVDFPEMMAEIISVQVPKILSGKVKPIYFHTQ

[3] = system: sebaceous glands of the left ear; assay: Topical antiandrogenic activity, ear sebaceous glands model in the male hamster; type: in vivo; conditions: 3 μg daily dose for 14 days
Procedure: Column 5 represents the percentage of inhibition of the area of the sebaceous glands of the left ear of the treated animals versus the area of the sebaceous glands of the left ear of the control animals. A 3 μg-daily dose for 14 days of tested compound dissolved in ten μL solution of ethanol: propylene Glycol (1:1; v: v) applied onto a region between the two cartilage ridges of the ventral surface of left pinna.
D—In vivo Assessment of Topical Antiandrogenic Activity
The antiandrogenic activity of compounds for topical use was determined using the ear sebaceous glands model in the male hamster.
Male Golden Syrian Hamsters (SYR) of 110-120 g were obtained from Harlan Sprague-Dawley (Madison, USA) and housed up to 2 per plastic cage in a temperature (22±3° C.) and light (12 h light/day, lights on at 7h15)-controlled environment. The hamsters were fed with Certified Rodent Diet 5002 (pellet) and had access to tap water ad libitum. […]
The total area of the sebaceous glands (μm^2) in each examined field was calculated by the Image Analyser. We also measured the total area, which has the length of 0.953 mm and the height between stratum granulosum and the cartilage. […] Thus, for each ear, two sections were cut and two fields from each section were analyzed. The total of the four readings was averaged and the mean standard error of the mean was calculated by the image analyzer. […]

[4] = system: Shionogi mouse mammary carcinoma cells; assay: Androgenic/antiandrogenic activity: inhibition of DHT-stimulated Shionogi cell number; type: cell-based; conditions: DHT-stimulated Shionogi cell number; for IC50: Mus musculus; for Shionogi Antiandrogenic Activity IC50: Table 3, agonist reported when compound stimulates the cells
[5] = system: rat prostate, seminal vesicle, levator ani muscle; assay: Systemic androgenic activity in orchidectomized immature male rats; type: in vivo; conditions: po, 168 h, 0.2 mg/animal daily 7 days
From the text: Column 7 represents the % of androgenic efficacy in rat prostate, expressed in percentage of stimulation:
W is the weight of the prostate.
Column 8 represents the % of androgenic efficacy in rat seminal vesicle, expressed in percentage of stimulation:
W is the weight of the seminal vesicle.
Column 9 represents the % of androgenic efficacy in rat levator ani muscle, expressed in percentage of stimulation: […]
Immature male rats (Crl:CD(SD)Br) 22 to 24-day old were obtained from Charles-River, Inc. (St-Constant, Quebec, Canada) and housed up to 5 per cage in plastic bins in a temperature (23±1° C.)— and light (12 h light/day, lights on at 7h15)— controlled environment. The rats were fed rodent chow and tap water ad libitum. The day following their arrival, the animals were orchidectomized (CX) under Isoflurane anesthesia via scrotal route and randomly assigned to groups of 5 animals.
To evaluate the antiandrogenic activity, tested compounds were administered subcutaneously or orally once daily at a dose of 0.5 mg/animal for antiandrogenitic activity or 0.2 mg/animal for androgenic activity for 7 days (SD 1 to 7). Compounds were solubilized (when possible) in dimethylsulfoxide (DMSO, 10% final concentration) and administered as suspension in 0.4% methylcellulose. […] One group of animals received the antiandrogen Flutamide as reference. The animals were killed by cervical dislocation under isoflurane anesthesia on the 8th morning following castration. The ventral prostate and seminal vesicles were rapidly dissected and weighed.
3. Calculations and Statistical Analysis
W is the weight of the prostate, the seminal vesicle or levator ani.

[6] = Table 3, p.o (marked in prostate cell), read-out: % Stimulation Lev.Ani
[7] = Table 3, p.o (marked in prostate cell), read-out: % Stimulation SV
[8] = Table 3, p.o, read-out: % Stimulation Prostate

SMILES	inhibition in vivo at 0.5 mg ([1]; read-out: Lev Ani % inhibition, Table 2, levator ani)	inhibition in vivo at 0.5 mg ([1]; read-out: Prostate % inhibition, Table 2)	inhibition in vivo at 0.5 mg ([1]; read-out: SV % inhibition, Table 2, seminal vesicle)	Human Androgen Receptor Binding (%) RBA R1881 = 100 ([2]; Table 2)	Human Androgen Receptor Binding (%) RBA R1881 = 100 ([2]; Table 4)	Hamster Topical 3 μg dose % inhibition vs cx (area of sebaceous glands of the left ear) [3]	IC50 ([4]; read-out: Shionogi Antiandrogenic Activity IC50, Table 2)	IC50 ([4]; read-out: Shionogi Antiandrogenic Activity IC50, Table 4)	change in vivo at 0.2 mg [5, 6]	change in vivo at 0.2 mg [5, 7]	change in vivo at 0.2 mg [5, 8]	% Inhibition Lev.Ani [1]	% Inhibition SV [1]	% Inhibition Prostate [1]	Human Androgen Receptor Binding (%) RBA R1881 = 100 ([2]; Table 3)	Shionogi Antiandrogenic Activity IC50 [4]
CCC(c1ccc(OCCC2(O)CCN(c3ccc(C#N)c(C(F)(F)F)c3)CC2)cc1)N1CCCC1 (stereo not drawn) [EM-7893, 4-(4-{2-[4-(1-propyl-pyrolidine)-phenoxy]-ethyl}-4-hydroxy-piperidin-1-yl)-2-trifluoromethyl-benzonitrile]	26%	6%	38%	10.3%	10.3%	47%	5.1 nM	5.1 nM	–	–	–	–	–	–	–	–
Cc1c(N2C(=O)C(C)(C)N(CCCOc3ccc(S(C)(=O)=O)cc3)C2=S)ccc(C#N)c1Cl [EM-8260, 4-(3-{3-[4-(1-methylsulfonyl)-phenoxy]-propyl}-4,4-dimethyl-5-oxo-2-thioxo-imidazolidin-1-yl)-2-chloro-3-methyl-benzonitrile]	–	–	–	–	–	–	–	–	74%	28%	27%	24%	54%	40 p.o %	17%	Partial agonist
CCS(=O)(=O)c1ccc(OCCCN2C(=S)N(c3ccc(C#N)c(Cl)c3C)C(=O)C2(C)C)cc1 [EM-8261]	–	–	–	–	–	–	–	–	82%	26%	41%	8%	25%	38 p.o %	32%	Partial agonist
